Reference: ChEMBL document CHEMBL1132854, “Structure-based design of ketone-containing, tripeptidyl human rhinovirus 3C protease inhibitors” (Bioorg Med Chem Lett, 2000)
Square brackets hold non-standard residues; d marks the D form. Peptide text beside a SMILES is read from it. * marks the point of attachment. Cbz = O=C(OCc1ccccc1)*; Dap = NC[C@H](N)C(=O)O

Columns and labels:
Human rhinovirus sp. [1] = assay: Compound was evaluated for in vitro cytotoxic concentration against HRV serotype-14 (HRV-14); format: functional
Human rhinovirus sp. [2] = assay: Compound was evaluated for in vitro effective concentration against HRV serotype-14 (HRV-14); format: functional, organism-based
Human rhinovirus sp. [3] = assay: Compound was evaluated for the inhibition of human rhinovirus 3C protease (3CP); No inhibition; format: functional, organism-based
Human rhinovirus sp. [4] = assay: Compound was evaluated for the inhibition of human rhinovirus 3C protease (3CP); format: functional, organism-based
Human rhinovirus sp. [5] = assay: Compound was evaluated for in vitro cytotoxic concentration against HRV serotype-14 (HRV-10); format: functional
Human rhinovirus sp. [6] = assay: Compound was evaluated for in vitro cytotoxic concentration against HRV serotype-14 (HRV-1A); format: functional
Human rhinovirus sp. [7] = assay: Compound was evaluated for in vitro effective concentration against HRV serotype-14 (HRV-10); format: functional, organism-based
Human rhinovirus sp. [8] = assay: Compound was evaluated for in vitro effective concentration against HRV serotype-14 (HRV-1A); format: functional, organism-based

Compound | EC50 (Human rhinovirus sp. [2]) [µM] | EC50 (Human rhinovirus sp. [7]) [µM] | EC50 (Human rhinovirus sp. [8]) [µM] | CC50 (Human rhinovirus sp. [1]) [µM] | Ki (Human rhinovirus sp. [3]) | Ki (Human rhinovirus sp. [4]) [µM] | CC50 (Human rhinovirus sp. [5]) [µM] | CC50 (Human rhinovirus sp. [6]) [µM]
Cc1cc(C(=O)N[C@H](C(=O)N[C@@H](Cc2ccc(F)cc2)C(=O)N[C@@H](C[C@@H]2CCNC2=O)C(=O)c2nc3ccccc3s2)C(C)C)no1 | 0.34 | 0.25 | 0.34 | 250 |  | 0.0045 | 250 | 250
CC(C)C[C@H](NC(=O)OCc1ccccc1)C(=O)N[C@@H](Cc1ccccc1)C(=O)N[C@@H](C[C@@H]1CCNC1=O)C(O)c1nc2ccccc2s1 (stereo partly specified) | 7.9 |  |  | 63 |  | 34 |  | 
CC(=O)NC[C@H](NC(=O)[C@H](Cc1ccccc1)NC(=O)[C@H](CC(C)C)NC(=O)OCc1ccccc1)C(=O)c1nc2ccccc2s1 | > 25 |  |  | 25 |  | 1.7 |  | 
CC(C)C[C@H](NC(=O)OCc1ccccc1)C(=O)N[C@@H](Cc1ccccc1)C(=O)N[C@@H](CCC(N)=O)C(=O)c1nc2ccccc2s1 | 17 |  |  | > 100 |  | 3.5 |  | 
CC(C)C[C@H](NC(=O)OCc1ccccc1)C(=O)N[C@@H](Cc1ccccc1)C(=O)N[C@@H](C[C@@H]1CCNC1=O)C(=O)c1nccs1 | 7.9 |  |  | 240 |  | 0.7 |  | 
CC(=O)NC[C@@H](C=O)NC(=O)[C@H](Cc1ccccc1)NC(=O)[C@H](CC(C)C)NC(=O)OCc1ccccc1 (Cbz-Leu-Phe-[Dap](Ac)-aldehyde) | 2.4 |  |  |  |  | 0.006 |  | 

More lines, main results first:

EC50 (Human rhinovirus sp. [2]) [µM] | EC50 (Human rhinovirus sp. [7]) [µM] | EC50 (Human rhinovirus sp. [8]) [µM] | Compound | CC50 (Human rhinovirus sp. [1]) [µM] | Ki (Human rhinovirus sp. [3]) | Ki (Human rhinovirus sp. [4]) [µM] | CC50 (Human rhinovirus sp. [5]) [µM] | CC50 (Human rhinovirus sp. [6]) [µM]
32 |  |  | CC(C)C[C@H](NC(=O)OCc1ccccc1)C(=O)N[C@@H](Cc1ccccc1)C(=O)N[C@@H](CCC(N)=O)C(O)c1nc2ccccc2s1 (stereo partly specified) | 80 | Not Active |  |  | 
> 10 |  |  | CC(C)C[C@H](NC(=O)OCc1ccccc1)C(=O)N[C@@H](Cc1ccccc1)C(=O)N[C@@H](C[C@@H]1CCNC1=O)C(=O)c1cc2ccccc2s1 | > 10 |  | 4.7 |  | 
> 10 |  |  | CC(C)C[C@H](NC(=O)OCc1ccccc1)C(=O)N[C@@H](Cc1ccccc1)C(=O)N[C@@H](C[C@@H]1CCNC1=O)C(=O)c1ccccc1 | > 10 |  | 3.2 |  | 
4 |  |  | CC(C)C[C@H](NC(=O)OCc1ccccc1)C(=O)N[C@@H](Cc1ccccc1)C(=O)N[C@@H](C[C@@H]1CCNC1=O)C(=O)c1ccccn1 | 200 |  | 0.17 |  | 
3.2 |  |  | CC(C)CC(NC(=O)OCc1ccccc1)C(=O)N[C@@H](Cc1ccccc1)C(=O)NC(CC1CCNC1=O)C(=O)c1nc2ccccc2s1 (stereo partly specified) | > 320 |  | 0.065 |  | 
